The text below walks through data of patent US11254668B2, “Pyrazolo[1,5-A]pyrazin-4-yl and related derivatives” (Pfizer Inc., priority 2017, dated 2022).

Common to all, as to format: biochemical
Assay [1] concerns the target JAK3 (Homo sapiens (Human), UniProt P52333). Briefly: JAK Caliper Enzyme Assay at 1 mM ATP, JAK3. The procedure:
(§1) Compounds of the invention were evaluated by in vitro methods to determine their respective ability to inhibit the JAK kinases (TYK2, JAK1, JAK2, JAK3).
(§2) The human JAK inhibitory activity was determined by using a microfluidic assay to monitor phosphorylation of a synthetic peptide by the recombinant human kinase domain of each of the four members of the JAK family, JAK1, JAK2, JAK3 and TYK2. […] Each assay condition was optimized for enzyme concentration and room temperature incubation time to obtain a conversion rate of 20% to 30% phosphorylated peptide product. Reactions were terminated by the addition of stop buffer containing EDTA. Utilizing the LabChip 3000 mobility shift technology (Caliper Life Science), each assay reaction was sampled to determine the level of phosphorylation. This technology is separation-based, allowing direct detection of fluorescently labeled substrates and products. Separations are controlled by a combination of vacuum pressure and electric field strength optimized for each peptide substrate.
(§3) JAK Caliper Enzyme Assay at 1mM ATP
(§4) Compounds were added to a 384-well plate.
(§5) The data was collected using the HTS Well Analyzer software from Caliper Life Sciences. The data output for data analysis is the percent product converted calculated on peak height (Equation 1). % product converted=100*((product)/(product+substrate)) Equation 1: […]
(§6) The percent effect at each compound concentration was calculated based on the positive and negative control well contained within each assay plate (Equation 2). […] The negative control wells contained DMSO alone (at the same concentration as the compound wells) that was used to set the baseline activity in the assay (i.e., uninhibited JAK1, JAK2, JAK3 or TYK2). % effect=100*([…](positive control-negative control)) Equation 2: […]
(§7) The percent effect was plotted against the compound concentration compound.

The target of assay [2] is JAK1 (Homo sapiens (Human), UniProt P23458). Briefly: JAK Caliper Enzyme Assay at 1 mM ATP, JAK1. Here is the method:
as §1, §2, §3, §4, §5, §6, §7

For assay [3], the target named is TYK2 (Homo sapiens (Human), UniProt P29597). In words: JAK Caliper Enzyme Assay at 1 mM ATP, TYK2. The procedure: as §1, §2, §3, §4, §5, §6, §7

Where two headings read alike, the source gives them in different places. Where only a bound is given, the exact number is not on record here.

Sequence of JAK1 (P23458 875-1153): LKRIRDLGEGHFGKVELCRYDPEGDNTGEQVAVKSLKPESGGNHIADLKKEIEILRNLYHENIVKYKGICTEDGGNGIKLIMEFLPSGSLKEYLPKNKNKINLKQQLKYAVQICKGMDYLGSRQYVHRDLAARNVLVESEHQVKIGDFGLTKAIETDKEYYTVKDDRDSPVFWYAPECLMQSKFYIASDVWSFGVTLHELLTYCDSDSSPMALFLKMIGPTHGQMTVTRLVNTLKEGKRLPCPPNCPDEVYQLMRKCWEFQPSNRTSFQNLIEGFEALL
Sequence of TYK2 (P29597 897-1176): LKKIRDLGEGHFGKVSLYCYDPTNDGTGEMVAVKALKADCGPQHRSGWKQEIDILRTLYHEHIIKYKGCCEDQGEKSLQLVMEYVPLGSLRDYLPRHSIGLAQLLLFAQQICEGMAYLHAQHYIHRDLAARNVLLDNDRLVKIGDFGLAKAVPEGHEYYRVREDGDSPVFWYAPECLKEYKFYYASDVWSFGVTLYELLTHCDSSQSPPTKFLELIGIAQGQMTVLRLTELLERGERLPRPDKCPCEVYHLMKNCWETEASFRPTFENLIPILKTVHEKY
Sequence of JAK3 (P52333 822-1111): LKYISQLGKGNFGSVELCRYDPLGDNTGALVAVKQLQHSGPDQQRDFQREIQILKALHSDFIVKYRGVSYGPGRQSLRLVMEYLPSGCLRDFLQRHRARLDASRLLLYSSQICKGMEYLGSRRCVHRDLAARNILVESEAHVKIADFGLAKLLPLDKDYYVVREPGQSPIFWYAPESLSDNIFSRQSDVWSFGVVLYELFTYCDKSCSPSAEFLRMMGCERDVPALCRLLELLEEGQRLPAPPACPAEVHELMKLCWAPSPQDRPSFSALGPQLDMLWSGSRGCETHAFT

What is called IC50 is the concentration that inhibits the measured activity by half. In the case of `N#CCC1(n2ccc(-c3nc(-c4cccnc4)cc4ncccc34)n2)CN(CC(F)(F)F)C1` [Example 171, [3-{3-[7-(pyridin-3-yl)-1,6-naphthyridin-5-yl]-1H-pyrazol-1-yl}-1-(2,2,2-trifluoroethyl)azetidin-3-yl]acetonitrile], the IC50 is above 10 µM in assay [1], 2.73 µM in assay [2] and 0.066 µM in assay [3].
Taken in the same sequence, the figures for `CS(=O)(=O)N1CC(CC#N)(n2ccc(-c3nc(-c4cccc(O)n4)cc4ncccc34)n2)C1` [Example 180, [3-{3-[7-(6-hydroxypyridin-2-yl)-1,6-naphthyridin-5-yl]-1H-pyrazol-1-yl}-1-(methylsulfonyl)azetidin-3-yl]acetonitrile] were above 10 µM, 3.74 µM and 0.042 µM.
Taken in the same sequence, the figures for `CS(=O)(=O)N1CC(CC#N)(n2ccc(-c3nc(-c4ccnc(O)c4)cc4ncccc34)n2)C1` [Example 186, [3-{3-[7-(2-hydroxypyridin-4-yl)-1,6-naphthyridin-5-yl]-1H-pyrazol-1-yl}-1-(methylsulfonyl)azetidin-3-yl]acetonitrile] were above 10 µM, 4.86 µM and 0.074 µM.
Taken in the same sequence, the figures for `COc1nc(-c2cc3ncccc3c(-c3ccn([C@]4(CC#N)C[C@H](C#N)C4)n3)n2)ccc1N` [Example 223, cis-3-{3-[7-(5-amino-6-methoxypyridin-2-yl)-1,6-naphthyridin-5-yl]-1H-pyrazol-1-yl}-3-(cyanomethyl)cyclobutanecarbonitrile] were above 10 µM, 0.365 µM and 0.015 µM.
`N#CC[C@]1(n2ccc(-c3nc(-c4ccc(N)c(C(N)=O)n4)cc4ncccc34)n2)C[C@H](C#N)C1` [Example 224, 3-amino-6-(5-{1-[cis-3-cyano-1-(cyanomethyl)cyclobutyl]-1H-pyrazol-3-yl}-1,6-naphthyridin-7-yl)pyridine-2-carboxamide]: the IC50 in assay [1] is above 10 µM; in assay [2], 1.94 µM; in assay [3], 0.045 µM.
The like results for `N#CC[C@]1(n2ccc(-c3nc(-c4ccc(N)c(C(N)=O)n4)cc4ncccc34)n2)C[C@@H](C#N)C1` [Example 225, 3-amino-6-(5-{1-[trans-3-cyano-1-(cyanomethyl)cyclobutyl]-1H-pyrazol-3-yl}-1,6-naphthyridin-7-yl)pyridine-2-carboxamide] were, in that order, above 10 µM, 0.215 µM and 0.009 µM.
Taken in the same sequence, the figures for `N#CCC1(n2ccc(-c3nc(-c4ccnnc4)cc4ncccc34)n2)CN(CC(F)(F)F)C1` [Example 233, [3-{3-[7-(pyridazin-4-yl)-1,6-naphthyridin-5-yl]-1H-pyrazol-1-yl}-1-(2,2,2-trifluoroethyl)azetidin-3-yl]acetonitrile] were above 10 µM, 9.58 µM and 0.347 µM.
As for `CS(=O)(=O)Nc1ccc(-c2cc3ncccc3c(-c3ccn([C@]4(CC#N)C[C@@H](C#N)C4)n3)n2)cc1` [Example 256, N-[4-(5-{1-[cis-3-cyano-1-(cyanomethyl)cyclobutyl]-1H-pyrazol-3-yl}-1,6-naphthyridin-7-yl)phenyl]methanesulfonamide], the figures for the IC50 in assay [1], in assay [2] and in assay [3] were 0.454 µM, 0.012 µM and 0.011 µM, respectively.
As to `CS(=O)(=O)Nc1ccc(-c2cc3ncccc3c(-c3ccn([C@]4(CC#N)C[C@H](C#N)C4)n3)n2)cc1` [Example 257, N-[4-(5-{1-[trans-3-cyano-1-(cyanomethyl)cyclobutyl]-1H-pyrazol-3-yl}-1,6-naphthyridin-7-yl)phenyl]methanesulfonamide], the IC50 in assay [1] was 6.42 µM; in assay [2], 0.11 µM; in assay [3], 0.02 µM.
The like results for `CS(=O)(=O)N1CC(CC#N)(n2ncc(-c3cc(-c4cc[nH]n4)cc4ncccc34)n2)C1` [Example 298, [1-(methylsulfonyl)-3-{4-[7-(1H-pyrazol-3-yl)quinolin-5-yl]-2H-1,2,3-triazol-2-yl}azetidin-3-yl]acetonitrile] were, in that order, above 10 µM, 0.594 µM and 0.023 µM.
Taken in the same sequence, the figures for `N#CCC1(n2ncc(-c3cc(-c4cc[nH]n4)cc4ncccc34)n2)CN(S(N)(=O)=O)C1` [Example 300, 3-(cyanomethyl)-3-{4-[7-(1H-pyrazol-3-yl)quinolin-5-yl]-2H-1,2,3-triazol-2-yl}azetidine-1-sulfonamide] were 3.32 µM, 0.291 µM and 0.016 µM.
The like results for `Cn1ncc(-c2cc(-c3cnn([C@]4(CC#N)C[C@@H](C#N)C4)n3)c3cccnc3c2)c1CO` [Example 328, trans-3-(cyanomethyl)-3-(4-{7-[5-(hydroxymethyl)-1-methyl-1H-pyrazol-4-yl]quinolin-5-yl}-2H-1,2,3-triazol-2-yl)cyclobutanecarbonitrile] were, in that order, above 10 µM, above 10 µM and 1.29 µM.
`Cn1cc(-c2cc(-c3cnn([C@]4(CC#N)C[C@H](C#N)C4)n3)c3cccnc3c2)c(N)n1` [Example 332, cis-3-{4-[7-(3-amino-1-methyl-1H-pyrazol-4-yl)quinolin-5-yl]-2H-1,2,3-triazol-2-yl}-3-(cyanomethyl)cyclobutanecarbonitrile]: the IC50 is above 10 µM in assay [1], 1.69 µM in assay [2] and 0.016 µM in assay [3].
Taken in the same sequence, the figures for `Cn1cc(-c2cc(-c3cnn([C@]4(CC#N)C[C@@H](C#N)C4)n3)c3cccnc3c2)c(N)n1` [Example 333, trans-3-{4-[7-(3-amino-1-methyl-1H-pyrazol-4-yl)quinolin-5-yl]-2H-1,2,3-triazol-2-yl}-3-(cyanomethyl)cyclobutanecarbonitrile] were above 10 µM, 5.87 µM and 0.031 µM.
As to `N#CC[C@]1(n2ncc(-c3cc(-c4cccc(C(N)=O)n4)cc4ncccc34)n2)C[C@H](C#N)C1` [Example 349, 6-(5-{2-[trans-3-cyano-1-(cyanomethyl)cyclobutyl]-2H-1,2,3-triazol-4-yl}quinolin-7-yl)pyridine-2-carboxamide], the IC50 in assay [1] was above 10 µM; in assay [2] it was 0.738 µM; in assay [3] it was 0.017 µM.
Taken in the same sequence, the figures for `N#CC[C@]1(n2ncc(-c3cc(-c4cccc(C(N)=O)n4)cc4ncccc34)n2)C[C@H](C#N)C1` [Example 350, 6-(5-{2-[cis-3-cyano-1-(cyanomethyl)cyclobutyl]-2H-1,2,3-triazol-4-yl}quinolin-7-yl)pyridine-2-carboxamide] were 2.47 µM, 0.097 µM and 0.007 µM.
On to `N#CC[C@]1(n2ncc(-c3cc(-c4cnc(N)nc4)cc4ncccc34)n2)C[C@@H](C#N)C1` [Example 394, cis-3-{4-[7-(2-aminopyrimidin-5-yl)quinolin-5-yl]-2H-1,2,3-triazol-2-yl}-3-(cyanomethyl)cyclobutanecarbonitrile], for which the half-inhibitory concentration (IC50) was above 10 µM in assay [1] (JAK Caliper enzyme assay), 8.56 µM in assay [2] (JAK Caliper enzyme assay) and 1.03 µM in assay [3] (JAK Caliper enzyme assay).
Regarding `CS(=O)(=O)N1CC(CC#N)(n2ncc(-c3cc(-c4c[nH]c5nccc-5c4)cc4ncccc34)n2)C1` [Example 415, [1-(methylsulfonyl)-3-{4-[7-(7H-pyrrolo[2,3-b]pyridin-5-yl)quinolin-5-yl]-2H-1,2,3-triazol-2-yl}azetidin-3-yl]acetonitrile], the IC50 in assay [1] (JAK Caliper enzyme assay) is above 10 µM; in assay [2] (JAK Caliper enzyme assay), above 10 µM; in assay [3] (JAK Caliper enzyme assay) it was 1.09 µM.
